The values below come from patent publication US20230002439A1, “CRYSTALLINE FORMS OF VAMOROLONE” (ReveraGen BioPharma, Inc., priority 2021, published 2023).

Data set [1] can be described thus: DSC thermal treatment and hot-stage pXRD (Form II vs. Form I). Format: physicochemical. As to the method: The melting of vamorolone was performed in a DSC apparatus at a heating rate of 10° C./min. The DSC furnace was programmed to cool at 10° C./min down to −40° C. A second heating cycle at a heating rate of 10° C./min was performed.
The solid samples were examined using an X-ray diffractometer (Bruker D8 advance). The system is equipped with highly-parallel x-ray beams (Göbel Mirror) and a LynxEye detector. The samples were scanned from 3 to 40° 20 at a step size of 0.02° 20 and a time per step of 19.70 seconds. The tube voltage and current were 45 kV and 40 mA, respectively. The sample was transferred from the sample container onto a zero background XRD-holder and gently ground.
DSC analyses were conducted on a TA Instruments Q200. The calibration standard was indium. A sample of 2.0 mg in weight was placed into a TA DSC pan, and weight was accurately recorded. Crimped pans were used for analysis, and the samples were heated under nitrogen (50 mL/min) at a rate of 10° C./min, up to a final temperature of 260° C.
However, the pXRD pattern obtained after the sample was cooled down to room temperature is similar to the initial material. […] It is estimated from DSC and hot-stage pXRD data that the transition temperature could well be above 100° C. […]
On the technique in general: DSC measures the heat that a sample takes up or gives off during a temperature scan.

Data set [2] can be described thus: Thermogravimetric analysis (TGA). Format: physicochemical. As to the method: TGA analyses were carried out on a TA Instruments TGA Q500. Approximately 2.0 mg of samples were placed in a tared platinum or aluminum pan, automatically weighed, and inserted into the TGA furnace. The samples were heated at 10° C./min to a final temperature of 300° C. The purge gas is nitrogen for balance at 40 mL/min and the sample at 60 mL/min, respectively.

For data set [3], the system named is mouse models of inflammatory states. The settings on record: multiple mouse models; including loss of growth stunting and loss of bone fragility; cited from earlier work.
A further data set addresses T1, glucocorticoid receptor (Homo sapiens, UniProt P04150).
T1 sequence (P04150 1-777): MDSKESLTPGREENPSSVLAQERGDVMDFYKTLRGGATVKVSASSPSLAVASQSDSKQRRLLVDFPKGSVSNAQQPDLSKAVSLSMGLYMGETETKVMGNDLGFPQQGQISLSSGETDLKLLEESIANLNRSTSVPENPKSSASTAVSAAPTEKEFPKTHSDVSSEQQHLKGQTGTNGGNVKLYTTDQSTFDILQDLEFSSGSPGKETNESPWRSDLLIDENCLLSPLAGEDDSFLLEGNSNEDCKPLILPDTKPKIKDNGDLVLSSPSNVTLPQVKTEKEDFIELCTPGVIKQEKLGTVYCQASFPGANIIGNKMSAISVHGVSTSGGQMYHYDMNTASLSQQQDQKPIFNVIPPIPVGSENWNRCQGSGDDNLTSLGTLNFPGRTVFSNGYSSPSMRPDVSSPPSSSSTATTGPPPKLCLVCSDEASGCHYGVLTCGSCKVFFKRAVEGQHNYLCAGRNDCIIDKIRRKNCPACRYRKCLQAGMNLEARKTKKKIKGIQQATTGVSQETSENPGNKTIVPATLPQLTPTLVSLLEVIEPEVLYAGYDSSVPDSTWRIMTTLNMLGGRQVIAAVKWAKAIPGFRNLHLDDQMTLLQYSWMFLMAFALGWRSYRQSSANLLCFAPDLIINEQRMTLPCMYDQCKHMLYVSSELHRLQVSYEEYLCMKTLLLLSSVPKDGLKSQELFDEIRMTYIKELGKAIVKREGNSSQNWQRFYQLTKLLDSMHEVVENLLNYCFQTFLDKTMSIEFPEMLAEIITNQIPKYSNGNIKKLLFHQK
The settings on record: pre-clinical data, background statement; cited from earlier work.

Molecules are shown by their SMILES. A value given as a limit tells only on which side of the number the result lay.

With `C[C@@H]1C[C@H]2[C@@H]3CCC4=CC(=O)C=C[C@]4(C)C3=CC[C@]2(C)[C@@]1(O)C(=O)CO` [Form I, 17α,21-dihydroxy-16α-methylpregna-1,4,9(11)-triene-3,20-dione], the “relative stability of polymorphs” value in data set [1] (below the transition temperature) was “most stable form”.

For `C[C@@H]1C[C@H]2[C@@H]3CCC4=CC(=O)C=C[C@]4(C)C3=CC[C@]2(C)[C@@]1(O)C(=O)CO` [Form II, 17α,21-dihydroxy-16α-methylpregna-1,4,9(11)-triene-3,20-dione], the “relative stability of polymorphs” value in data set [1] (above the transition temperature) is recorded as “most stable”.

As for `C[C@@H]1C[C@H]2[C@@H]3CCC4=CC(=O)C=C[C@]4(C)C3=CC[C@]2(C)[C@@]1(O)C(=O)CO` [Form IV, 17α,21-dihydroxy-16α-methylpregna-1,4,9(11)-triene-3,20-dione], the TGA weight loss in data set [2] (FIG. 7, temperature not stated) is less than 0.5%; in data set [2] (below about 200° C.) it was “less than 0.5%”. Turning to `C[C@@H]1C[C@H]2[C@@H]3CCC4=CC(=O)C=C[C@]4(C)C3=CC[C@]2(C)[C@@]1(O)C(=O)CO` [Form VII, 17α,21-dihydroxy-16α-methylpregna-1,4,9(11)-triene-3,20-dione], in data set [2] (below about 225° C.), the TGA weight loss entry is recorded as “less than 1%”. For `C[C@@H]1C[C@H]2[C@@H]3CCC4=CC(=O)C=C[C@]4(C)C3=CC[C@]2(C)[C@@]1(O)C(=O)CO` [vamorolone, 17α,21-dihydroxy-16α-methylpregna-1,4,9(11)-triene-3,20-dione], the side effect profiles entry in data set [3] is on record as “dramatically improves side effect profiles”. Also, at glucocorticoid receptor, the “binding to the glucocorticoid receptor” value was “binds potently”.
